This experiment has as its target FXR (Homo sapiens (Human), UniProt Q96RI1). Briefly: FXR EC50 (FXR agonist activity reported with each example). It is filed as cell-based.

Chain of FXR (Q96RI1 262-486): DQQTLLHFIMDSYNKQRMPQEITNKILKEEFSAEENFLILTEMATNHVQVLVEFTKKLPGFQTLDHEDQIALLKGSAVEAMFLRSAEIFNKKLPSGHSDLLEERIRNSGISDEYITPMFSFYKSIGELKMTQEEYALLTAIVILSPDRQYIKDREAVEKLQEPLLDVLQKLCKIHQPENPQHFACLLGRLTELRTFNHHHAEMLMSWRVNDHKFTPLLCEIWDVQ

In general, EC50 refers to the concentration needed to bring the measured effect to its halfway point. A lower EC50 goes with greater potency. The compound `O=C(O)c1cc(F)cc(-c2noc(C34CCC(/C=C/c5c(-c6c(Cl)cncc6Cl)noc5C5CC5)(CC3)CC4)n2)c1` [Example 442, (E)-3-(5-(4-(2-(5-cyclopropyl-3-(3,5-dichloropyridin-4-yl)isoxazol-4-yl)vinyl)bicyclo[2.2.2]octan-1-yl)-1,2,4-oxadiazol-3-yl)-5-fluorobenzoic acid] registered a 50% effective concentration (EC50) of 79 nM.
The value for `CC(C)Oc1cc(OCC23CCC(OCc4c(-c5c(Cl)cncc5Cl)noc4C4CC4)(CC2)CC3)cc(C(=O)O)c1` [Example 326] was 17 nM.
With `COC(=O)c1cccc(NC(=O)C23CCC(C=Cc4c(-c5c(Cl)cccc5Cl)noc4C4CC4)(CC2)CC3)c1` [Example 187] the figure was 3000 nM; with `COc1cncc(Cl)c1-c1noc(C2CC2)c1COC12CCC(COc3ccc(C)c(C(=O)O)n3)(CC1)CC2` [Example 120, 6-((4-((3-(3-chloro-5-methoxypyridin-4-yl)-5-cyclopropylisoxazol-4-yl)methoxy)bicyclo[2.2.2]octan-1-yl)methoxy)-3-methylpicolinic acid], 2300 nM.
With `O=C(O)c1ccc(OCC23CCC(OCc4c(-c5c(Cl)cccc5Cl)noc4C4CC4)(CC2)CC3)nc1` [Example 107, 6-((4-((5-cyclopropyl-3-(2,6-dichlorophenyl)isoxazol-4-yl)methoxy)bicyclo[2.2.2]octan-1-yl)methoxy)nicotinic acid] the figure was 77 nM; with `COC(=O)c1ccc(NC(=O)C23CCC(COCc4c(-c5c(Cl)cccc5Cl)noc4C4CC4)(CC2)CC3)c(Cl)c1` [Intermediate 170A, methyl 3-chloro-4-(4-(((5-cyclopropyl-3-(2,6-dichlorophenyl)isoxazol-4-yl)methoxy)methyl)bicyclo[2.2.2]octane-1-carboxamido)benzoate], 2400 nM; with `O=C(O)c1cc(OC(F)F)c2cc(C#CC34CCC(OCc5c(-c6c(Cl)cncc6Cl)noc5C5CC5)(CC3)CC4)ccc2n1` [Example 376], 27 nM.
In turn, `O=C(O)c1cccc2nc(C34CCC(OCc5c(-c6c(Cl)cccc6Cl)noc5C5CC5)(CC3)CO4)sc12` [Example 454, 2-(4-((5-cyclopropyl-3-(2,6-dichlorophenyl)isoxazol-4-yl)methoxy)-2-oxabicyclo[2.2.2]octan-1-yl)benzo[d]thiazole-7-carboxylic acid] registered an EC50 of 680 nM.
The value for `COc1ccc(-c2nc(C34CCC(OCc5c(-c6c(Cl)cncc6Cl)noc5C5CC5)(CC3)CC4)c[nH]2)cc1C(=O)O` [Example 259, 5-(4-(4-((5-cyclopropyl-3-(3,5-dichloropyridin-4-yl)isoxazol-4-yl)methoxy)bicyclo[2.2.2]octan-1-yl)-1H-imidazol-2-yl)-2-methoxybenzoic acid] was 5500 nM; that for `O=C(O)c1cccc(-c2noc(C34CCC(/C=C/c5c(-c6c(Cl)cccc6Cl)noc5C5CC5)(CC3)CC4)n2)c1` [Example 159, (E)-3-(5-(4-(2-(5-cyclopropyl-3-(2,6-dichlorophenyl)isoxazol-4-yl)vinyl)bicycle[2.2.2]octan-1-yl)-1,2,4-oxadiazol-3-yl)benzoic acid] was 14 nM.
The value for `O=C(O)c1ccc(F)c(-c2noc(C34CCC(OCc5c(-c6c(Cl)cncc6Cl)noc5C5CC5)(CC3)CC4)n2)c1` [Example 461, 3-(5-(4-((5-cyclopropyl-3-(3,5-dichloropyridin-4-yl)isoxazol-4-yl)methoxy)bicyclo[2.2.2]octan-1-yl)-1,2,4-oxadiazol-3-yl)-4-fluorobenzoic acid] was 190 nM; that for `COc1ccc(-c2noc(C34CCC(OCc5c(-c6c(Cl)cncc6Cl)noc5C5CC5)(CC3)CC4)n2)c(F)c1C(=O)O` [Example 250, 3-(5-(4-((5-cyclopropyl-3-(3,5-dichloropyridin-4-yl)isoxazol-4-yl)methoxy)bicyclo[2.2.2]octan-1-yl)-1,2,4-oxadiazol-3-yl)-2-fluoro-6-methoxybenzoic acid] was 730 nM; that for `COc1ccc(-c2noc(C34CCC(OCc5c(-c6c(Cl)cncc6Cl)noc5C5CC5)(CC3)CC4)n2)cc1C(=O)O` [Example 69, 5-(5-(4-((5-Cyclopropyl-3-(3,5-dichloropyridin-4-yl)isoxazol-4-yl)methoxy)bicyclo[2.2.2]octan-1-yl)-1,2,4-oxadiazol-3-yl)-2-methoxybenzoic acid] was 56 nM.
`O=C(O)c1cccc(-c2noc(C34CCC(COCc5c(-c6c(Cl)cccc6Cl)noc5C5CC5)(CC3)CO4)n2)c1` [Example 210, 3-(5-(4-(((5-cyclopropyl-3-(2,6-dichlorophenyl)isoxazol-4-yl)methoxy)methyl)-2-oxabicyclo[2.2.2]octan-1-yl)-1,2,4-oxadiazol-3-yl)benzoic acid]: the response was half-maximal at 960 nM (EC50). This EC50 lies about 17-fold higher than the previous one.
The compound `O=C(O)c1cccc(OCC23CCC(OCc4c(-c5c(Cl)cccc5Cl)noc4C4CC4)(CC2)CC3)c1` [Example 82, 3-((4-((5-cyclopropyl-3-(2,6-dichlorophenyl)isoxazol-4-yl)methoxy)bicyclo[2.2.2]octan-1-yl)methoxy) benzoic acid] gave a 50% effective concentration (EC50) of 22 nM.
With `CC(C)(C(=O)O)c1ccc(C23CCC(/C=C/c4c(-c5ccccc5C(F)(F)F)noc4C4CC4)(CC2)CO3)cc1` [Example 477, (E)-2-(4-(4-(2-(5-cyclopropyl-3-(2-(trifluoromethyl)phenyl)isoxazol-4-yl)vinyl)-2-oxabicyclo[2.2.2]octan-1-yl)phenyl)-2-methylpropanoic acid] the figure was 1500 nM; with `O=C(O)c1cc(C#CC23CCC(OCc4c(-c5c(Cl)cncc5Cl)noc4C4CC4)(CC2)CC3)c2cc[nH]c2c1` [Example 416], 40 nM.
With `O=C(O)c1cnc2ccc(OCC34CCC(OCc5c(-c6c(Cl)cncc6Cl)noc5C5CC5)(CC3)CC4)nn12` [Example 466, 6-((4-((5-cyclopropyl-3-(3,5-dichloropyridin-4-yl)isoxazol-4-yl)methoxy)bicyclo[2.2.2]octan-1-yl)methoxy)imidazo[1,2-b]pyridazine-3-carboxylic acid] the figure was 390 nM; with `COc1cc(-c2noc(C34CCC(OCc5c(-c6c(Cl)cncc6Cl)noc5C5CC5)(CC3)CC4)n2)cc(C(=O)O)c1F` [Example 241, 5-(5-(4-((5-cyclopropyl-3-(3,5-dichloropyridin-4-yl)isoxazol-4-yl)methoxy)bicyclo[2.2.2]octan-1-yl)-1,2,4-oxadiazol-3-yl)-2-fluoro-3-methoxybenzoic acid], 130 nM.
The value for `Cn1nc(OCC23CCC(OCc4c(-c5c(Cl)cncc5Cl)noc4C4CC4)(CC2)CC3)cc1C(=O)O` [Example 315] was 340 nM; that for `O=C(O)c1cc(OC(F)F)c2cc(OCC34CCC(OCc5c(-c6c(Cl)cncc6Cl)noc5C5CC5)(CC3)CO4)ccc2n1` [Example 471, 6-((4-((5-cyclopropyl-3-(3,5-dichloropyridin-4-yl)isoxazol-4-yl)methoxy)-2-oxabicyclo[2.2.2]octan-1-yl)methoxy)-4-(difluoromethoxy)quinoline-2-carboxylic acid] was 200 nM; that for `O=C(O)c1cncc(OCC23CCC(OCc4c(-c5c(Cl)cccc5Cl)noc4C4CC4)(CC2)CC3)n1` [Example 112, 6-((4-((5-cyclopropyl-3-(2,6-dichlorophenyl)isoxazol-4-yl)methoxy)bicyclo[2.2.2]octan-1-yl)methoxy)pyrazine-2-carboxylic acid] was 690 nM.
As for `COc1cc(C(=O)O)c(F)c(-c2noc(C34CCC(OCc5c(-c6c(Cl)cncc6Cl)noc5C5CC5)(CC3)CC4)n2)c1` [Example 244, 3-(5-(4-((5-cyclopropyl-3-(3,5-dichloropyridin-4-yl)isoxazol-4-yl)methoxy)bicyclo[2.2.2]octan-1-yl)-1,2,4-oxadiazol-3-yl)-2-fluoro-5-methoxybenzoic acid], the concentration giving a half-maximal response (EC50) amounted to 230 nM.
The value for `O=C(O)c1cncc(OCC23CCC(OCc4c(-c5c(Cl)cccc5Cl)noc4C4CC4)(CC2)CC3)c1` [Example 109, 5-((4-((5-cyclopropyl-3-(2,6-dichlorophenyl)isoxazol-4-yl)methoxy)bicyclo[2.2.2]octan-1-yl)methoxy)nicotinic acid] was 150 nM.
The compound `Cc1c(OCC23CCC(OCc4c(-c5c(Cl)cccc5Cl)noc4C4CC4)(CC2)CC3)cccc1C(=O)O` [Example 95, 3-((4-((5-cyclopropyl-3-(2,6-dichlorophenyl)isoxazol-4-yl)methoxy)bicyclo[2.2.2]octan-1-yl)methoxy)-2-methylbenzoic acid] gave an EC50 of 400 nM.
Turning to `O=C(O)c1ccc2nc(C34CCC(OCc5c(-c6c(Cl)cncc6Cl)noc5C5CC5)(CC3)CC4)ccc2n1` [Example 421], it took 53 nM to reach a half-maximal effect (EC50).
The value for `O=C(O)c1ccc2nc(C34CCC(OCc5c(-c6c(Cl)cccc6Cl)noc5C5CC5)(CC3)CC4)ncc2c1` [Example 24, 2-(4-((5-cyclopropyl-3-(2,6-dichlorophenyl)isoxazol-4-yl)methoxy)bicyclo[2.2.2]octan-1-yl)quinazoline-6-carboxylic acid] was 250 nM; that for `O=C(O)c1cnn2ccc(C#CC34CCC(OCc5c(-c6c(Cl)cncc6Cl)noc5C5CC5)(CC3)CC4)cc12` [Example 395] was 120 nM.
The value for `COc1ccc(C(=O)O)c2ccc(C34CCC(OCc5c(-c6c(Cl)cncc6Cl)noc5C5CC5)(CC3)CC4)nc12` [Example 371] was 18 nM.
The value for `N#Cc1cccc(OCC23CCC(OCc4c(-c5c(Cl)cccc5Cl)noc4C4CC4)(CC2)CC3)c1` [Example 88, 3-((4-((5-cyclopropyl-3-(2,6-dichlorophenyl)isoxazol-4-yl)methoxy)bicyclo[2.2.2]octan-1-yl)methoxy)benzonitrile] was 960 nM; that for `O=C(O)c1cc(C(F)(F)F)cc2nc(C34CCC(OCc5c(C(C6CC6)C6CC6)noc5C5CC5)(CC3)CC4)ccc12` [Example 423, 2-(4-((5-cyclopropyl-3-(dicyclopropylmethyl)isoxazol-4-yl)methoxy)bicyclo[2.2.2]octan-1-yl)-7-(trifluoromethyl)quinoline-5-carboxylic acid] was 67 nM; that for `CC(C)(C(=O)O)c1ccc(C23CCC(/C=C/c4c(-c5c(Cl)cncc5Cl)noc4C4CC4)(CC2)CO3)cc1` [Example 482, (E)-2-(4-(4-(2-(5-cyclopropyl-3-(3,5-dichloropyridin-4-yl)isoxazol-4-yl)vinyl)-2-oxabicyclo[2.2.2]octan-1-yl)phenyl)-2-methylpropanoic acid] was 950 nM.

The values above are taken from US10730863B2, “Bridged bicyclic compounds as farnesoid X receptor modulators” (BRISTOL-MYERS SQUIBB COMPANY, priority 2017, dated 2020).
